Results from patent publication US12358892B2, “Metalloenzyme inhibitors for treating cancers, Alzheimer's disease, hemochromatosis, and other disorders” (Miralogx LLC, priority 2020, dated 2025).
Entries after “also recorded” stand apart in the source; their conditions may differ.

Tests used:
[1] = tested on: T cells; test: BioMAP proliferation readout, T cells; assay type: cell-based, human; details: 100 μM, 33 μM
Excerpt: (§1) The X-axis lists the quantitative protein-based biomarker readouts measured in each system. The Y-axis represents a log-transformed ratio of the biomarker readouts for the drug-treated sample (n=1) over vehicle controls (n≥6). The grey region around the Y-axis represents the 95% significance envelope generated from historical vehicle controls. Biomarker activities are annotated when two or more consecutive concentrations change in the same direction relative to vehicle controls, are outside of the significance envelope, and have at least one concentration with an effect size >20% (|log 10 ratio|>0.1). Biomarker key activities are described as modulated if these activities increase in some systems, but decrease in others. […] As summarized in Table 2 below, the compound was active with 35 annotated readouts. […]
(§2) Human primary cells in BioMAP® systems are used at early passage (passage 4 or earlier) to minimize adaptation to cell culture conditions and preserve physiological signaling responses. […] Test agents prepared in either DMSO (small molecules; final concentration ≤0.1%) or PBS (biologics) are added at the indicated concentrations 1-hr before stimulation, and remain in culture for 24-hrs or as otherwise indicated (48-hrs, MyoF system; 72-hrs, BT system (soluble readouts); 168-hrs, BT system (secreted IgG)). […]

[2] = tested on: human primary endothelial cells; test: BioMAP proliferation readout, endothelial cells; assay type: cell-based; details: 100 μM, 33 μM, 11 μM
Excerpt: as §1, §2

[3] = tested on: HT-29 colorectal adenocarcinoma cell line; test: BioMAP Oncology CRC panel (StroHT29 and VascHT29 systems); assay type: cell-based, human
Excerpt: The BioMAP® oncology system used in this Example is a coculture of primary human immune cells with primary tissue cells in the presence of the Colorectal Cancer (CRC) cells. In particular, The BioMAP® Oncology CRC panel models the interactions between the immune-stromal (fibroblasts) and immune-vascular (endothelial cells) environments in the context of colorectal cancer (HT-29 colorectal adenocarcinoma cell line). The interactions between tumor cells, stimulated immune cells (peripheral blood mononuclear cells [PBMC]), and the host stromal network (human neonatal dermal fibroblasts [HDFn]) are captured in the StroHT29 system. In parallel, the VascHT29 system captures the interactions between tumor cells, activated immune cells and the vascular tissue (human umbilical vein endothelial cells [HUVEC]). The biomarkers selected for the BioMAP® Colorectal Cancer (CRC) panel inform on activities related to inflammation, immune-function, tissue remodeling and metastasis in the context of a host tumor-microenvironment.
A signature BioMAP® profile that is reflective of the changes in protein biomarker readouts within an individual system is generated for each test agent. Biomarker readouts selected for therapeutic and biological relevance are predictive for disease outcomes or specific drug effects, and have been validated using agents with known clinical efficacy. Each readout is measured quantitatively by immune-based receptors, cytokines, chemokines, matrix molecules and enzymes. In total, the 41 biomarker readouts in the CRC panel capture the biological changes that occur within the physiological context of each particular BioMAP® system.
The BioMAP® CRC panel allows a focused in vitro evaluation of the impact of an agent in a model system that includes the hierarchical signaling networks that exist between interacting pathways and cells in a disease relevant setting. To represent the changes that are occurring in these complex systems, biomarker readouts with the ability to integrate and distinguish changes in different regulatory networks have been selected.
Data analysis of the results was performed as described in detail above in Example 3.1. Briefly, biomarker activities are annotated when at least one concentration of the test agent is outside of the significance envelope with an effect size >20% compared to the vehicle control (|log 10 ratio|>0.1) and a p-value <0.01. Cytotoxic conditions are noted when total protein levels decrease by more than 50% (log 10 ratio of SRB <−0.3). Biomarker key activities are described as modulated if these activities increase in some systems, but decrease in others.

[4] = 7.4 μM, 22 μM, 67 μM, Angiogenesis related activities
[5] = 7.4 μM, 22 μM, 67 μM, Immune-related activities
[6] = 7.4 μM, 22 μM, 67 μM, Inflammation related activities
[7] = 7.4 μM, 22 μM, 67 μM, Matrix remodeling activities
[8] = 7.4 μM, 22 μM, 67 μM, Tumor-related activities

In the case of `C1=NC(c2cncc(C3CCC=N3)c2)CC1` (centres unmarked) [3,5-bis(3,4-dihydro-2H-pyrrol-2-yl)pyridine], the “antiproliferative effect on T cells” value [1] is reported as “antiproliferative”, the “antiproliferative effect on human primary endothelial cells” value [2] is reported as “antiproliferative” and the “Decreased activity: PAI-I” value [3, 4] is reported as “decreased; also recorded: PAI-I”. The “Decreased activity: tPA” value [3, 4] was “decreased and tPA”, the “Decreased activity: uPA” value [3, 4] was “decreased and uPA” and the “Increased activity: sVEGF” value [3, 4] was “increased; also recorded: SVEGF”. The “Decreased Activity: sIL-6” value [3, 5] was “decreased”, the “Decreased activity: CD40” value [3, 5] was “decreased and CD40” and the “Decreased activity: CD69” value [3, 5] was “decreased and CD69”. The “Decreased activity: sGranB” value [3, 5] was “decreased; also recorded: sGranB”, the “Decreased activity: sIFNγ” value [3, 5] was “decreased; also recorded: SIFNG” and the “Decreased activity: sIL-2” value [3, 5] was “decreased; also recorded: sIL-2”. For the same compound, the “Decreased activity: sIL-10 (Table 8) / sIL-1β” value [3, 5] was “decreased”, the “Decreased activity: sIL-17A” value [3, 5] was “decreased” and the “Decreased activity: IP-10” value [3, 6] was “decreased; also recorded: IP-10”. For the same compound, the “Decreased activity: MCP-1” value [3, 6] was “decreased; also recorded: MCP-1”, the “Decreased activity: MIG” value [3, 6] was “decreased and MIG” and the “Decreased activity: VCAM-1” value [3, 6] was “decreased; also recorded: VCAM-1”. For the same compound, the “Decreased activity: Collagen I” value [3, 7] was “decreased; also recorded: Col-I”, the “Decreased activity: Collagen III” value [3, 7] was “decreased and Col-” and the “Decreased activity: Collagen IV” value [3, 7] was “decreased; also recorded: Col-IV”. For the same compound, the “Decreased activity: MMP9” value [3, 7] was “decreased and MMP9”, the “Decreased activity: TIMP2” value [3, 7] was “decreased; also recorded: TIMP2” and the “Decreased activity: CEACAM5” value [3, 8] was “decreased; also recorded: CEACAM5”. The “Decreased activity: Keratin 20” value [3, 8] was “decreased” and the cytotoxicity ([3]; at 200 μM) was “cytotoxic”.
